Test [1] concerns the target T1, recombinant human Wee1A kinase (Homo sapiens, UniProt P30291).
T1 construct: full length Wee1A kinase was expressed by baculovirus in insect cells; purchased Invitrogen PV3817; host or cells: insect cells (baculovirus)
As to the kind of experiment: LanthaScreen Europium (Eu) Kinase Binding Assay, Wee1A kinase (TR-FRET tracer displacement). The following applies: 30 nM tracer 178, 5 nM Wee1A kinase, 60 minutes at room temperature.

The subject of test [2] is Cdk1 phosphorylated on tyrosine 15. As to the kind of experiment: pCDK1 Y15 AlphaLISA target engagement assay in ACHN cells. The test is classed as cell-based. The following applies: Homo sapiens, treated for 4 h, 7 to 5000 nM, read-out: TE Weel (ALISA): AlphaLISA CDK1 Tyr15 Phosphorylation EC50. As to the method:
(§1) ACHN renal cell carcinoma cell line (ATCC) was cultured in Minimum Essential Medium Eagle supplemented with 10% fetal calf serum (Sigma), 1% Penicillin-Streptomycin and 10 mM HEPES buffer (HyClone). Cell cultures were kept in a humidified incubator at 37° C. and 5% CO2. Cells were routinely tested for Mycoplasma contamination.
For target engagement assessment, quantification of Cdk1 phosphorylated on tyrosine 15 was detected using pCDK1 Y^15 AlphaLISA assay (Perkin Elmer). ACHN cells were seeded into tissue culture treated 96-well plates (VWR) to a density of 20,000 cells per well. 24 h post seeding cells were treated for 4 h with compounds at concentrations ranging from 7 to 5000 nM. Cells were washed with PBS and lysed in 50 μl alphaLISA lysis buffer before freezing at −80° C. 10 μl of the lysate was transferred to 384 well plates and incubated with alphaLISA donor and acceptor beads according to the manufacturer's instructions. Dose response curves and EC50 values were calculated and visualized using GraphPad Prism version 9.

Test [3] shares this test system. Nature of the test: High-content imaging of pCdk1 Y15 by immunofluorescence in ACHN cells. The test is classed as cell-based. The following applies: Homo sapiens, high-content imaging (IF), 4 h, 7 to 5000 nM, read-out: CDK1 Tyr15 Phosphorylation EC50 (IC50). A digest of the protocol:
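ACHN cells were treated with compounds at 7–5000 nM for 4 h, then fixed, permeabilised and immunostained for pCDK1 Y15, with DAPI as nuclear counterstain. Automated imaging gave the percentage of cells with nuclear pCDK1 Y15 positivity relative to DMSO control. EC50 values came from dose-response curves.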

The subject of a further test is ACHN cells. As to the kind of experiment: Cell Titer Glo viability assay in ACHN cells. The test is classed as cell-based. The following applies: Homo sapiens, 144 h, 0.17 to 10,000 nM. As to the method:
as §1
ACHN cells were seeded at a density of 400 cells per well in tissue culture treated 384 well plates (Corning Costar). After overnight incubation, cells were treated with drugs at concentrations ranging from 0.17 to 10,000 nM. Viability compared to untreated control was assessed at 144 h using Cell Titer Glo assay 2.0 (Promega).
(Cellular ATP, detected with luciferase, serves as a proxy for viable cell number.)

The structures appear in SMILES notation.

By IC50 is commonly meant the concentration at which inhibition is half-maximal. As a reminder, the EC50 is the midpoint of the concentration-response curve.

T1 sequence (P30291 whole entry): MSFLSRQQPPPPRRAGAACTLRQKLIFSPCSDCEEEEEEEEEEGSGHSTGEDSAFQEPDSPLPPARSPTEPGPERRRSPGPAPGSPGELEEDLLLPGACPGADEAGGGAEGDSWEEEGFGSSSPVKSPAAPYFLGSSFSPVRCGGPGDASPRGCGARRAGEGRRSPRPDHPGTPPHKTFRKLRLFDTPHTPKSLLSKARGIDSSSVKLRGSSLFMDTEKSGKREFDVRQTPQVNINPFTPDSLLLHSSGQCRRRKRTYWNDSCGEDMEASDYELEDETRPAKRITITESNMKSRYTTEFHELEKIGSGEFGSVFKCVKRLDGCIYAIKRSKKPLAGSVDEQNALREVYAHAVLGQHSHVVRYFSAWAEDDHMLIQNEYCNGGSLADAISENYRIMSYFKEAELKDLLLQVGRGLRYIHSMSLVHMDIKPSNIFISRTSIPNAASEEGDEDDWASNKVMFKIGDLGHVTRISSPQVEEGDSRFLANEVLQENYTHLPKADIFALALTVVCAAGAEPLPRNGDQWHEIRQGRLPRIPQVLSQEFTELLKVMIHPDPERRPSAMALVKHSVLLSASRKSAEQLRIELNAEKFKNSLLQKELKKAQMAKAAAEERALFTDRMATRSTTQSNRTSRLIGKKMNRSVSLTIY

`COc1nc(Nc2ccc(O[C@H]3CCNC3)c(C)c2)ncc1C(=O)Nc1c(Cl)cccc1Cl` [Compound 177]: the IC50 in test [1] is ≤ 0.01 µM. Further, the half-maximal effective concentration (EC50) in test [2] was > 2.5 µM.

Regarding `COc1nc(Nc2ccc(C3CCN(C)CC3)c(C)c2)ncc1C(=O)Nc1c(C)ccc2[nH]ncc12` [Compound 172], the IC50 in test [1] is ≤ 0.01 µM. Moreover, the results for the EC50 (in test [2]; in test [3]; in the test with ACHN cells) were 0.5 to 1 µM, 0.1 to 0.5 µM and 0.25 to 1 µM, respectively.

Turning to `COc1nc(Nc2cnn(C3CCN(C)CC3)c2)ncc1C(=O)Nc1c(Cl)cccc1Cl` [Compound 163], the IC50 in test [1] was ≤ 0.01 µM. The EC50 in test [2] is > 2.5 µM; in test [3], 0.1 to 0.5 µM; in the test on ACHN cells it was 0.25 to 1 µM.

With `COc1nc(Nc2ccc(OC3CCNCC3)cc2)ncc1C(=O)Nc1c(Cl)cccc1Cl` [Compound 179], the IC50 in test [1] was ≤ 0.01 µM. Moreover, the EC50 in test [2] is > 2.5 µM; in test [3] it was 0.1 to 0.5 µM; with ACHN cells it was 0.25 to 1 µM.

Take `COc1nc(Nc2cnn(C)c2)ncc1C(=O)Nc1c(Cl)cccc1Cl` [Compound 182]: the IC50 in test [1] lay within 0.01 to 0.1 µM. Besides, the EC50 in test [2] was > 2.5 µM; in test [3], 0.1 to 0.5 µM; with ACHN cells it was 1 to 5 µM.

As for `COc1nc(Nc2ccc3c(cnn3C3CCN(C)C3)c2)ncc1C(=O)Nc1c(Cl)cccc1Cl` (centres unmarked) [Compound 173], the IC50 in test [1] lay within 0.01 to 0.1 µM. Further, the EC50 in test [2] is > 2.5 µM.

Regarding `COc1nc(Nc2ccc(C3CCN(C)CC3)c(C)c2)ncc1C(=O)Nc1c(Cl)cccc1Br` [Compound 110, N-(2-bromo-6-chlorophenyl)-4-methoxy-2-((3-methyl-4-(1-methylpiperidin-4-yl)phenyl)amino)pyrimidine-5-carboxamide], in test [1], the IC50 is ≤ 0.01 µM. In addition, the EC50 in test [3] was ≤ 0.1 µM; in the test with ACHN cells it was ≤ 0.25 µM.

With `COc1nc(Nc2ccc(O[C@H]3CCN(C)C3)c(C)c2)ncc1C(=O)Nc1c(Cl)cccc1Cl` [Compound 154, (S)—N-(2,6-dichlorophenyl)-4-methoxy-2-((3-methyl-4-((1-methylpyrrolidin-3-yl)oxy)phenyl)amino)pyrimidine-5-carboxamide], the IC50 in test [1] is ≤ 0.01 µM. Also, the results for the EC50 in test [2] and in test [3] were > 2.5 µM and 0.1 to 0.5 µM, respectively.

With `COc1nc(Nc2ccc(OCCCN(C)C)c(C)c2)ncc1C(=O)Nc1c(Cl)ccc(O)c1C` [Compound 158, N-(6-chloro-3-hydroxy-2-methylphenyl)-2-((4-(3-(dimethylamino)propoxy)-3-methylphenyl)amino)-4-methoxypyrimidine-5-carboxamide], in test [1], the IC50 was ≤ 0.01 µM. Also, the figures for the EC50 (in test [3]; in the test with ACHN cells) were 0.1 to 0.5 µM and 0.25 to 1 µM, respectively.

In the case of `COc1nc(Nc2ccc(C3CCN(C)CC3)c(C)c2)ncc1C(=O)Nc1cc(N)ccc1C` [Compound 171], the IC50 in test [1] lay in the range of 0.01 to 0.1 µM. The EC50 in test [2] is > 2.5 µM.

Take `COc1nc(Nc2cnn(C3CCN(C)CC3)c2)ncc1C(=O)Nc1c(Br)cccc1Br` [Compound 212, N-2,6-dibromophenyl-4-methoxy-2-[1-(1-methyl-4-piperidyl)-4-pyrazolylamino]-5-pyrimidinecarboxamide]: the IC50 in test [1] is ≤ 0.01 µM. Besides, the EC50 in test [3] was 0.1 to 0.5 µM; with ACHN cells, ≤ 0.25 µM.

With `COc1nc(Nc2ccc(OC3CCNCC3)c(C)c2)ncc1C(=O)Nc1c(Cl)cccc1Cl` [Compound 180], in test [1], the IC50 was ≤ 0.01 µM. The results for the EC50 (in test [2]; in test [3]; in the test with ACHN cells) were 0.5 to 1 µM, 0.1 to 0.5 µM and 0.25 to 1 µM, respectively.

For the compound `COc1nc(Nc2ccc(C3CCNCC3)c(C)c2)ncc1C(=O)Nc1c(Cl)cccc1Cl` [Compound 175], the half-inhibitory concentration (IC50) in test [1] was ≤ 0.01 µM. Further, the EC50 is ≤ 0.5 µM in test [2], ≤ 0.1 µM in test [3] and ≤ 0.25 µM with ACHN cells.

`COc1nc(Nc2ccc3c(c2)CN(C)CC3)ncc1C(=O)Nc1c(Cl)cccc1Cl` [Compound 116, N-(2,6-dichlorophenyl)-4-methoxy-2-((2-methyl-1,2,3,4-tetrahydroisoquinolin-7-yl)amino)pyrimidine-5-carboxamide]: the concentration for half-maximal inhibition (IC50) in test [1] is ≤ 0.01 µM. In addition, the EC50 in test [3] is ≤ 0.1 µM; in the test with ACHN cells it was 0.25 to 1 µM.

Consider `COc1nc(Nc2ccc(N3CCC(N(C)C)CC3)c(C)c2)ncc1C(=O)Nc1c(Cl)cccc1Br` [Compound 213], for which the concentration for half-maximal inhibition (IC50) in test [1] was ≤ 0.01 µM. Further, the results for the EC50 (in test [3]; with ACHN cells) were 0.1 to 0.5 µM and ≤ 0.25 µM, respectively.

Turning to `COc1nc(Nc2ccc(O[C@@H]3CCNC3)c(C)c2)ncc1C(=O)Nc1c(Cl)cccc1Cl` [Compound 178], the IC50 in test [1] was ≤ 0.01 µM. The EC50 was 0.5 to 1 µM in test [2], ≤ 0.1 µM in test [3] and 0.25 to 1 µM in the test with ACHN cells.

Take `COc1nc(Nc2ccc([C@@H]3CCCN(C)C3)c(C)c2)ncc1C(=O)Nc1c(Cl)cccc1Br` (single isomer, unassigned) [Compound 197]: in test [1], the concentration for half-maximal inhibition (IC50) was ≤ 0.01 µM. Moreover, the EC50 is 0.1 to 0.5 µM in test [3] and ≤ 0.25 µM with ACHN cells.

Turning to `COc1nc(Nc2ccc(C3(C#N)CCN(C)CC3)c(C)c2)ncc1C(=O)Nc1c(Cl)cccc1Cl` [Compound 181], in test [1], the concentration for half-maximal inhibition (IC50) is ≤ 0.01 µM. For the same compound, the half-maximal effective concentration (EC50) in test [2] was ≤ 0.5 µM.

As to `COc1nc(Nc2ccc(C3CCN(C)CC3)c(C)c2)ncc1C(=O)Nc1c(Cl)cccc1Cl` [Compound 100, N-(2,6-dichlorophenyl)-4-methoxy-2-((3-methyl-4-(1-methylpiperidin-4-yl)phenyl)amino)pyrimidine-5-carboxamide], in test [1], the half-inhibitory concentration (IC50) is ≤ 0.01 µM. In addition, the EC50 in test [3] was ≤ 0.1 µM; in the test on ACHN cells, 0.25 to 1 µM.

For the compound `COc1nc(Nc2ccc3c(cnn3CCN(C)C)c2)ncc1C(=O)Nc1c(Cl)cccc1Cl` [Compound 174], the concentration for half-maximal inhibition (IC50) in test [1] is ≤ 0.01 µM. In addition, in test [2], the EC50 is > 2.5 µM.

Take `COc1nc(Nc2ccc(C3CCN(C)CC3)c(C#N)c2)ncc1C(=O)Nc1c(Cl)cccc1Cl` [Compound 156, 2-((3-cyano-4-(1-methylpiperidin-4-yl)phenyl)amino)-N-(2,6-dichlorophenyl)-4-methoxypyrimidine-5-carboxamide]: the IC50 in test [1] is ≤ 0.01 µM. The EC50 in test [2] lay in the range of 0.5 to 1 µM.

`COc1nc(Nc2ccc3c(cnn3C)c2)ncc1C(=O)Nc1c(Cl)cccc1Cl` [Compound 176]: the IC50 in test [1] lay within 0.01 to 0.1 µM. For the same compound, in test [2], the EC50 was > 2.5 µM.

On to `COc1nc(Nc2ccc(O[C@H]3CCN(C)C3)c(C)c2)ncc1C(=O)Nc1c(Cl)ccc(O)c1C` [Compound 155, (S)—N-(6-chloro-3-hydroxy-2-methylphenyl)-4-methoxy-2-((3-methyl-4-((1-methylpyrrolidin-3-yl)oxy)phenyl)amino)pyrimidine-5-carboxamide], for which the IC50 in test [1] was ≤ 0.01 µM. The EC50 in test [2] was ≤ 0.5 µM.

Take `COc1nc(Nc2ccc(C3CCN(C)CC3)c(C)c2)ncc1C(=O)Nc1c(Cl)ccc(O)c1Cl` [Compound 133, N-(2,6-dichloro-3-hydroxyphenyl)-4-methoxy-2-((3-methyl-4-(1-methylpiperidin-4-yl)phenyl)amino)pyrimidine-5-carboxamide]: in test [1], the IC50 was ≤ 0.01 µM. Further, the EC50 in test [3] was ≤ 0.1 µM; in the test on ACHN cells, ≤ 0.25 µM.
